Laboratory results taken from ChEMBL document CHEMBL1201862, “PubChem BioAssay data set” (2004).
Several values for one entry are separate records, joined by “and”; a condition that tells them apart may be missing. Equal values may be shown once.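 These data come from cells grown in 96-well plates and exposed to compound for 48 hours at five concentrations. GI50: concentration for 50% inhibition of growth.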 Activity calls are given as the source filed them. No stated cut-off is given here; in the data, active = GI50 up to about 1.1 µM and inactive = higher.

Tests used:
Experiment in all cases: NCI anticancer screen, dose series, 48 h
UACC-257 = test system: UACC-257
HCC 2998 = test system: HCC 2998
HT-29 = test system: HT-29
M14 = test system: M14
SF-539 = test system: SF-539
IGROV-1 = test system: IGROV-1
RPMI-8226 = test system: RPMI-8226
NCI-H460 = test system: NCI-H460
LOX IMVI = test system: LOX IMVI
SK-MEL-2 = test system: SK-MEL-2
COLO 205 = test system: COLO 205
786-0 = test system: 786-0
CCRF-CEM = test system: CCRF-CEM
SNB-75 = test system: SNB-75
A498 = test system: A498
NCI-H226 = test system: NCI-H226
SR = test system: SR

Measured: GI50

OC1c2ccccc2C2(O)C1C(c1ccccc1)C(c1ccccc1)C2(O)c1ccccc1 (stereo not drawn)
inactive: UACC-257 14.3 µM | HCC 2998 11.2 µM | HT-29 9.86 µM | M14 13.7 µM | SF-539 12.6 µM | IGROV-1 18.2 µM | RPMI-8226 4.65 µM | NCI-H460 4.56 µM | LOX IMVI 5.4 µM | SK-MEL-2 10.3 µM | COLO 205 14 µM | 786-0 11.5 µM | CCRF-CEM 8.18 µM | SNB-75 12.1 µM

C/C(=N\OCC(O)CNC(C)C)c1ccc2c(c1)NC(=O)CS2 (stereo not drawn)
inactive: UACC-257 > 100 µM | A498 > 100 µM | HCC 2998 > 100 µM | HT-29 > 100 µM | M14 > 100 µM | SF-539 > 100 µM | NCI-H460 > 100 µM | NCI-H226 > 100 µM | LOX IMVI > 100 µM | SK-MEL-2 > 100 µM | COLO 205 > 100 µM | 786-0 > 100 µM | CCRF-CEM > 100 µM | SNB-75 50.6 µM

c1ccc(C2Nc3ccccc3C3OCCCC23)cc1 (stereo not drawn)
inactive: UACC-257 30.9 µM | A498 21.2 µM | HCC 2998 35.8 µM | HT-29 > 10 µM | SF-539 16.1 µM | IGROV-1 11.8 µM | RPMI-8226 20.1 µM | NCI-H460 > 10 µM | NCI-H226 14.8 µM | LOX IMVI 12.8 µM | SK-MEL-2 30.7 µM | COLO 205 35.4 µM | 786-0 27.6 µM | CCRF-CEM 20.2 µM

Cc1cc(C)nc(NS(=O)(=O)c2ccc(NC(=O)c3cccc4c(Nc5ccc(S(=O)(=O)Nc6nc(C)cc(C)n6)cc5)c5ccc(Cl)cc5nc34)cc2)n1
inactive: UACC-257 20.8 µM | A498 45 µM | HCC 2998 36.6 µM | HT-29 40.6 µM | M14 37.4 µM | SF-539 37.8 µM | IGROV-1 46.2 µM | RPMI-8226 28.2 µM | NCI-H460 37 µM | LOX IMVI 29.2 µM | SK-MEL-2 34 µM | COLO 205 33.8 µM | 786-0 28.4 µM | CCRF-CEM 27.5 µM | SNB-75 17.1 µM

COC(=O)[C@]1(C)CCC[C@]2(C)C3CC4OOC3(C=C4C(C)C)CCC21 (stereo partly drawn)
inactive: UACC-257 17.3 µM | A498 11.4 µM | HCC 2998 16.5 µM | HT-29 14.7 µM | M14 15.5 µM | SF-539 17 µM | IGROV-1 16 µM | RPMI-8226 12.7 µM | NCI-H460 12.4 µM | NCI-H226 19.6 µM | LOX IMVI 2.77 µM | SK-MEL-2 17.2 µM | COLO 205 19.7 µM | 786-0 5.51 µM | CCRF-CEM 3.01 µM | SR 9.66 µM

CCOC(=O)CCC1(C(=O)OC)CCCC1=O (stereo not drawn)
inactive: UACC-257 > 100 µM | A498 > 100 µM | HCC 2998 > 100 µM | HT-29 > 100 µM | SF-539 > 100 µM | IGROV-1 > 100 µM | RPMI-8226 > 100 µM | NCI-H460 > 100 µM | LOX IMVI > 100 µM | SK-MEL-2 > 100 µM | COLO 205 > 100 µM | 786-0 > 100 µM | CCRF-CEM > 10 µM | SNB-75 > 100 µM

CCC(C)NC1=C(NC(C)=O)C(=O)c2ccccc2C1=O (stereo not drawn)
inactive: UACC-257 > 75 µM | A498 > 75 µM | HCC 2998 > 75 µM | HT-29 54.1 µM | M14 > 75 µM | SF-539 > 75 µM | IGROV-1 > 75 µM | RPMI-8226 13.4 µM | NCI-H460 > 75 µM | NCI-H226 > 75 µM | LOX IMVI 15.6 µM | SK-MEL-2 > 75 µM | COLO 205 > 75 µM | 786-0 > 7.5 µM | CCRF-CEM 21.8 µM | SNB-75 > 75 µM

Cc1ccc(/C=N/NS(=O)(=O)c2ccccc2)c(C)c1
inactive: UACC-257 80 µM | A498 > 100 µM | HCC 2998 > 100 µM | HT-29 > 100 µM | M14 > 100 µM | SF-539 > 100 µM | IGROV-1 > 100 µM | RPMI-8226 > 100 µM | NCI-H460 > 100 µM | NCI-H226 > 100 µM | LOX IMVI > 100 µM | SK-MEL-2 > 100 µM | COLO 205 > 100 µM | 786-0 > 100 µM | CCRF-CEM 78.9 µM | SR > 100 µM | SNB-75 > 100 µM

Cc1cn(Cc2ccccc2CCO)c(=S)[nH]c1=O
inactive: UACC-257 > 100 µM | A498 > 100 µM | HT-29 > 100 µM | M14 > 100 µM | SF-539 > 100 µM | IGROV-1 > 100 µM | RPMI-8226 > 100 µM | NCI-H460 > 100 µM | NCI-H226 34.8 µM | LOX IMVI > 100 µM | SK-MEL-2 > 100 µM | COLO 205 > 100 µM | 786-0 > 100 µM | CCRF-CEM > 100 µM | SNB-75 > 100 µM

CC(=O)OCC1OC(N2C(=O)C(=O)c3cc(C)ccc32)C(OC(C)=O)C(OC(C)=O)C1OC(C)=O (stereo not drawn)
inactive: UACC-257 > 100 µM | A498 > 100 µM | HT-29 37.2 µM | M14 66.5 µM | SF-539 > 100 µM | IGROV-1 46 µM | RPMI-8226 29.4 µM | NCI-H460 > 100 µM | NCI-H226 > 100 µM | LOX IMVI 17.1 µM | SK-MEL-2 > 100 µM | COLO 205 94.6 µM | 786-0 38.9 µM | CCRF-CEM 49.5 µM | SR 15.5 µM | SNB-75 > 100 µM

O=C1c2ccccc2-c2c3c(cc4ccnc1c24)OCO3 [LIRIODENINE]
inactive: A498 3.48 µM | HCC 2998 4.51 µM | HT-29 4.95 µM and 4.06 µM | M14 7.53 µM and 6.71 µM | IGROV-1 5.97 µM and 3.9 µM | RPMI-8226 3.2 µM and 3.48 µM | NCI-H460 3.59 µM and 3.34 µM | NCI-H226 4.69 µM and 5.27 µM | LOX IMVI 3.77 µM and 4.22 µM | SK-MEL-2 4.19 µM and 6 µM | COLO 205 4.79 µM and 4.24 µM | 786-0 4.25 µM and 7.69 µM | CCRF-CEM 4.1 µM and 2.7 µM | SNB-75 4.18 µM and 6 µM

COC(=O)c1c[nH]cc1CCCCc1c[nH]cc1C(=O)OC
inactive: UACC-257 > 100 µM | A498 > 100 µM | HCC 2998 > 100 µM | HT-29 > 100 µM | SF-539 > 100 µM | IGROV-1 > 100 µM | NCI-H460 > 100 µM | NCI-H226 > 100 µM | LOX IMVI > 100 µM | SK-MEL-2 > 100 µM | COLO 205 > 100 µM | 786-0 89.1 µM | CCRF-CEM > 100 µM | SR > 100 µM

C=CCc1cc(OC)c2c(c1)C(O)CC(c1ccccc1)O2 (stereo not drawn)
inactive: UACC-257 > 100 µM | HCC 2998 > 100 µM | HT-29 60.1 µM | M14 > 100 µM | SF-539 > 100 µM | IGROV-1 > 100 µM | NCI-H460 > 100 µM | NCI-H226 > 100 µM | SK-MEL-2 > 100 µM | COLO 205 > 100 µM | 786-0 > 100 µM | CCRF-CEM > 100 µM | SR > 100 µM | SNB-75 > 100 µM

COC(=O)C1CC/C(=N\c2cccc(C(F)(F)F)c2)N1 (stereo not drawn)
inactive: UACC-257 > 100 µM | A498 > 100 µM | HCC 2998 > 100 µM | HT-29 > 100 µM | M14 > 100 µM | IGROV-1 > 100 µM | RPMI-8226 > 100 µM | NCI-H460 > 100 µM | NCI-H226 > 100 µM | LOX IMVI > 100 µM | SK-MEL-2 > 100 µM | COLO 205 > 100 µM | 786-0 > 100 µM | CCRF-CEM > 100 µM | SNB-75 > 100 µM

CCOC(=O)C1N(S(=O)(=O)c2ccc(C)cc2)CCC12C(c1ccc(OC)cc1)NC1CCCCC12 (stereo not drawn)
inactive: UACC-257 > 100 µM | A498 > 100 µM | HCC 2998 > 100 µM | HT-29 > 100 µM | M14 > 100 µM | SF-539 55.7 µM | IGROV-1 > 100 µM | RPMI-8226 > 100 µM | NCI-H460 > 100 µM | NCI-H226 > 100 µM | LOX IMVI > 100 µM | COLO 205 > 100 µM | 786-0 68.7 µM | CCRF-CEM > 100 µM | SNB-75 28.9 µM

O=C1C2C3CCC(C2C(=O)N1CO)C1C2C(=O)N(CO)C(=O)C2C31 (stereo not drawn)
inactive: UACC-257 > 100 µM | A498 > 100 µM | HT-29 58.7 µM | M14 > 66.7 µM | SF-539 43 µM | IGROV-1 > 76 µM | RPMI-8226 21.1 µM | NCI-H460 22.7 µM | NCI-H226 > 81.7 µM | LOX IMVI 37.5 µM | SK-MEL-2 36 µM | COLO 205 40.4 µM | 786-0 43.3 µM | CCRF-CEM 19.1 µM | SR 13.4 µM | SNB-75 50.6 µM

Sc1nnc(C(c2ccccc2)c2ccccc2)[nH]1
inactive: UACC-257 > 100 µM | A498 > 100 µM | HCC 2998 > 100 µM | HT-29 > 100 µM | SF-539 > 100 µM | IGROV-1 > 100 µM | NCI-H460 > 100 µM | NCI-H226 > 100 µM | LOX IMVI > 100 µM | SK-MEL-2 > 100 µM | COLO 205 > 100 µM | 786-0 > 100 µM | CCRF-CEM > 100 µM

CC12c3ccccc3C(OC=O)(c3ccccc31)C1(C)c3ccccc3C2(OC=O)c2ccccc21
inactive: UACC-257 > 100 µM | A498 > 100 µM | HCC 2998 > 100 µM | HT-29 > 100 µM | M14 > 100 µM | IGROV-1 > 100 µM | RPMI-8226 > 100 µM | NCI-H460 81.3 µM | NCI-H226 > 100 µM | LOX IMVI > 100 µM | SK-MEL-2 > 100 µM | COLO 205 > 100 µM | 786-0 > 100 µM | CCRF-CEM 36.6 µM | SR 18.4 µM | SNB-75 81.1 µM
